Measurements from US10821115B2, “Compounds that inhibit Mcl-1 protein” (priority 2017, dated 2020).
Where two headings read alike, the source gives them in different places.

What was measured:
[1] = target: recombinant human Mcl-1 (residues 171-327) / Bim interaction (Homo sapiens (Human), UniProt Q07820); test: biochemical; format: binding; conditions: 0.1 nM Mcl-1(171-327), 0.05 nM biotin-Bim (51-76); read-out: Mcl-1 HTRF IC50
Procedure: The inhibition of the Mcl-1/Bim interaction was measured using a time-resolved fluorescence resonance energy transfer (TR-FRET) assay. […] The TR-FRET assay was conducted in a 384-well white OptiPlate™ (PerkinElmer, Waltham, Mass.) in a total volume of 40 μL. The reaction mixture contained 0.1 nM Mcl-1(171-327), 0.05 nM biotin-Bim (51-76), 0.05 nM LANCE® Eu-W1024 Anti-6×His (PerkinElmer), 0.072 nM Streptavidin-Xlent (Cisbio, Bedford, Mass.), and serially diluted test compounds in the binding buffer of 20 mM Hepes, pH 7.5, 150 mM NaCl, 0.016 mM Brij®35, and 1 mM dithiothreitol. Test compounds were pre-incubated with Mcl-1(171-327) and biotin-Bim (51-76) for 60 min before addition of the detection mixture (LANCE® Eu-W1024 Anti-6×His and Streptavidin-Xlent). The reaction plates were further incubated overnight and then were read on an Envision® multimode reader (PerkinElmer). Fluorescence signals were measured at 620 nm (40-nm bandwidth) and 665 nm (7.5-nm bandwidth) with a 60 is delay after excitation at 320 nm (75-nm bandwidth). The signal ratio at 665/620 nm corresponded to the Mcl-1/Bim interaction and was used in all data analyses. The IC50 values of test compounds were determined from duplicate data by analyzing competition curves using a four-parameter sigmoidal model in GraphPad Prism (GraphPad Software, San Diego, Calif.) or in Genedata Screener® (Genedata, Basel, Switzerland).

[2] = tested on: human multiple myeloma cell line, OPM-2; test: Cell viability assay (OPM-2 10 FBS), CellTiter-Glo; format: cell-based
How it was run: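 OPM-2 cells at 3000 cells/well in RPMI 1640 with 10% FBS were exposed to serially diluted compounds for 16 h at 37 °C, 5% CO2.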

[3] = Homo sapiens, OPM-2, 16 h, read-out: OPM-2 10% FBS IC50 IP, OPM-2 cells, 10% FBS, 16 h incubation

Sequence of recombinant human Mcl-1 (residues 171-327) / Bim interaction (Q07820 171-327): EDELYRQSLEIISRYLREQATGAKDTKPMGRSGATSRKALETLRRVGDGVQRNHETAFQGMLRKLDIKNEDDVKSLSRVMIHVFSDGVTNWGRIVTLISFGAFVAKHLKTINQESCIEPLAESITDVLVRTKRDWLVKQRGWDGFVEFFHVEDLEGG

In the case of CO[C@]1(CN2C[C@@H](C)N[C@@H](C)C2)/C=C/C[C@H](C)[C@@H](C)S(=O)(=O)NC(=O)c2ccc3c(c2)N(C[C@@H]2CC[C@H]21)C[C@@]1(CCCc2cc(Cl)ccc21)CO3 [Example 329, (1S,3′R,6′R,7′R,8′E,11′S,12′R)-6-chloro-7′-(((3R,5S)-3,5-dimethyl-1-piperazinyl)methyl)-7′-methoxy-11′,12′-dimethyl-3,4-dihydro-2H,15′H-spiro[naphthalene-1,22′-[20]oxa[13]thia[1,14]diazatetracyclo [14.7.2.0~3,6~.0~19,24~]pentacosa[8,16,18,24]tetraen]-15′-one 13′,13′-dioxide], the IC50 [1] is reported as 0.137 nM and the IC50 [2, 3] is reported as 243 nM.

Compound CCN1CCN(C[C@@]2(OC)/C=C/C[C@H](C)[C@@H](C)S(=O)(=O)NC(=O)c3ccc4c(c3)N(C[C@@H]3CC[C@H]32)C[C@@]2(CCCc3cc(Cl)ccc32)CO4)CC1(C)C [Example 330, (1S,3′R,6′R,7′R,8′E,11′S,12′R)-6-chloro-7′-((4-ethyl-3,3-dimethyl-1-piperazinyl)methyl)-7′-methoxy-11′,12′-dimethyl-3,4-dihydro-2H,15′H-spiro[naphthalene-1,22′-[20]oxa[13]thia[1,14]diazatetracyclo [14.7.2.0~3,6~.0~19,24~]pentacosa[8,16,18,24]tetraen]-15′-one 13′,13′-dioxide] has an IC50 [1] of 0.425 nM and an IC50 [2, 3] of 278 nM.

CO[C@@]1(CN2CCCN(C(C)C)CC2)/C=C/C[C@H](C)[C@@H](C)S(=O)(=O)NC(=O)c2ccc3c(c2)N(C[C@@H]2CC[C@H]21)C[C@@]1(CCCc2cc(Cl)ccc21)CO3 [Example 331] was tested, and the IC50 [1] was 0.184 nM and the IC50 ([2]; read-out: OPM-2 10% FBS IC50 IP, OPM-2 cells, 10% FBS, 16 h incubation) was 230 nM.

With COCCOCCN1CCN(C[C@]2(OC)/C=C/C[C@H](C)[C@@H](C)S(=O)(=O)NC(=O)c3ccc4c(c3)N(C[C@@H]3CC[C@H]32)C[C@@]2(CCCc3cc(Cl)ccc32)CO4)CC1 [Example 332, (1S,3′R,6′R,7′S,8′E,11′S,12′R)-6-chloro-7′-methoxy-7′-((4-(2-(2-methoxyethoxy)ethyl)-1-piperazinyl)methyl)-11′,12′-dimethyl-3,4-dihydro-2H,15′H-spiro[naphthalene-1,22′-[20]oxa[13]thia[1,14]diazatetracyclo [14.7.2.0~3,6~.0~19,24~]pentacosa[8,16,18,24]tetraen]-15′-one 13′,13′-dioxide] the IC50 [1] was 0.096 nM and the IC50 [2, 3] was 89 nM.

COCC(C)(C)N1CCN(C[C@@]2(OC)/C=C/C[C@H](C)[C@@H](C)S(=O)(=O)NC(=O)c3ccc4c(c3)N(C[C@@H]3CC[C@H]32)C[C@@]2(CCCc3cc(Cl)ccc32)CO4)CC1 [Example 333, (1S,3′R,6′R,7′R,8′E,11′S,12′R)-6-chloro-7′-methoxy-7′-((4-(2-methoxy-1,1-dimethylethyl)-1-piperazinyl)methyl)-11′,12′-dimethyl-3,4-dihydro-2H,15′H-spiro[naphthalene-1,22′-[20]oxa[13]thia[1,14]diazatetracyclo [14.7.2.0~3,6~.0~19,24~]pentacosa[8,16,18,24]tetraen]-15′-one 13′,13′-dioxide] gave an IC50 [1] of 0.088 nM and an IC50 [2, 3] of 82 nM.

In the case of COCCN1CCN(C[C@]2(OC)/C=C/C[C@H](C)[C@@H](C)S(=O)(=O)NC(=O)c3ccc4c(c3)N(C[C@@H]3CC[C@H]32)C[C@@]2(CCCc3cc(Cl)ccc32)CO4)CC1(C)C [Example 334, (1S,3′R,6′R,7′S,8′E,11′S,12′R)-6-chloro-7′-methoxy-7′-((4-(2-methoxyethyl)-3,3-dimethyl-1-piperazinyl)methyl)-11′,12′-dimethyl-3,4-dihydro-2H,15′H-spiro[naphthalene-1,22′-[20]oxa[13]thia[1,14]diazatetracyclo [14.7.2.0~3,6~.0~19,24~]pentacosa[8,16,18,24]tetraen]-15′-one 13′,13′-dioxide], the IC50 [1] is reported as 0.186 nM and the IC50 [2, 3] is reported as 159 nM.
